≈ marks a conversion by molar mass, not a printed value. Calls of active or inactive are those of the source. The rule behind the calls is not given here.
Key:
Neutrophil [1] = assay: Antiinflammatory activity against human neutrophils assessed as inhibition of LPS-stimulated TNFalpha production at 10 ug/ml after 3 hrs by FACS analysis
Actinomyces viscosus [2] = assay: Antimicrobial activity against Actinomyces viscosus ATCC 15987 by turbidimetric analysis; type: functional
Prevotella intermedia [3] = assay: Bactericidal activity against Prevotella intermedia ATCC 25611 after 24 hrs by turbidimetric analysis; type: functional; conditions: ATCC 25611, 24 h
[4] = tested on: Aggregatibacter actinomycetemcomitans; assay: Antimicrobial activity against Haemophilus actinomycetemcomitans ATCC 29522 by turbidimetric analysis; type: functional
Prevotella intermedia [5] = assay: Antimicrobial activity against Prevotella intermedia ATCC 25611 by turbidimetric analysis; type: functional
Actinomyces viscosus [6] = assay: Antimicrobial activity against Actinomyces viscosus ATCC 15987 assessed as eradication of preformed biofilm after 24 hrs by crystal violet staining; type: functional, organism-based; conditions: ATCC 15987, 24 h
[7] = tested on: Aggregatibacter actinomycetemcomitans; assay: Bactericidal activity against Haemophilus actinomycetemcomitans ATCC 29522 after 24 hrs by turbidimetric analysis; type: functional; conditions: ATCC 29522, 24 h
Enterococcus faecalis [8] = assay: Antimicrobial activity against Enterococcus faecalis ATCC 29212 by turbidimetric analysis; type: functional
Streptococcus mutans [9] = assay: Antimicrobial activity against Streptococcus mutans ATCC 25175 at 125 to 500 ug/ml by time kill analysis; type: functional, organism-based; conditions: TDE = time-dependent effect
Homo sapiens [10] = species on record: Homo sapiens; assay: Toxicity in healthy human assessed as occurrence of tingling sensation; type: organism-based; conditions: in vivo
Streptococcus mutans [11] = assay: Antimicrobial activity against Streptococcus mutans ATCC 25175 assessed as post antibiotic effect at 2 times MIC; type: functional
Porphyromonas gingivalis [12] = assay: Bactericidal activity against Porphyromonas gingivalis ATCC 33277 after 24 hrs by turbidimetric analysis; type: functional; conditions: ATCC 33277, 24 h
Homo sapiens [13] = species on record: Homo sapiens; assay: Toxicity in healthy human assessed as occurrence of after taste; type: organism-based; conditions: in vivo
Liver microsomes = assay: Antioxidant activity in rat liver microsomes assessed as reduction in lipid peroxidation at 10 to 100 ug/ml by thiobarbituric acid assay; type: functional; conditions: Microsome
Porphyromonas gingivalis [14] = assay: Antimicrobial activity against Porphyromonas gingivalis ATCC 33277 by turbidimetric analysis; type: functional
Streptococcus mutans [15] = assay: Antimicrobial activity against Streptococcus mutans ATCC 25175 assessed as post antibiotic effect at 250 ug/ml; type: functional
Streptococcus mutans [16] = assay: Antimicrobial activity against Streptococcus mutans ATCC 25175 assessed as inhibition of biofilm formation after 24 hrs by crystal violet staining; type: functional, organism-based; conditions: ATCC 25175, 24 h
[17] = Cytotoxicity against human neutrophils at 2.5 to 10 ug/ml after 3 hrs by MTT assay; type: cell-based; conditions: neutrophil
Streptococcus mutans [18] = assay: Antimicrobial activity against adherent cells of Streptococcus mutans ATCC 25175 at 1000 ug/ml; type: functional, organism-based
Fusobacterium nucleatum [19] = assay: Antimicrobial activity against Fusobacterium nucleatum ATCC 10953 by turbidimetric analysis; type: functional
Actinomyces viscosus [20] = assay: Antimicrobial activity against Actinomyces viscosus ATCC 15987 assessed as inhibition of biofilm formation after 24 hrs by crystal violet staining; type: functional, organism-based; conditions: ATCC 15987, 24 h
Neutrophil [21] = assay: Antiinflammatory activity against human neutrophils assessed as inhibition of LPS-stimulated TNFalpha production at 2.5 ug/ml after 3 hrs by FACS analysis; type: functional, cell-based
Streptococcus mutans [22] = assay: Antimicrobial activity against Streptococcus mutans ATCC 25175 by turbidimetric analysis; type: functional
Enterococcus faecium [23] = assay: Bactericidal activity against Enterococcus faecium ATCC 8042 after 24 hrs by turbidimetric analysis; type: functional; conditions: ATCC 8042, 24 h
Actinomyces viscosus [24] = assay: Bactericidal activity against Actinomyces viscosus ATCC 15987 after 24 hrs by turbidimetric analysis; type: functional; conditions: ATCC 15987, 24 h
Streptococcus mutans [25] = assay: Antimicrobial activity against Streptococcus mutans ATCC 25175 assessed as increase in membrane permeability at 1000 ug/ml after 30 mins by propidium iodide staining-based flow cytometry; type: functional, organism-based
Streptococcus mutans [26] = assay: Bactericidal activity against Streptococcus mutans ATCC 25175 after 24 hrs by turbidimetric analysis; type: functional; conditions: ATCC 25175, 24 h
Actinomyces viscosus [27] = assay: Antimicrobial activity against Actinomyces viscosus ATCC 15987 assessed as post antibiotic effect at 2 times MIC; type: functional
Enterococcus faecalis [28] = assay: Bactericidal activity against Enterococcus faecalis ATCC 29212 after 24 hrs by turbidimetric analysis; type: functional; conditions: ATCC 29212, 24 h
Actinomyces viscosus [29] = assay: Antimicrobial activity against Actinomyces viscosus ATCC 15987 assessed as post antibiotic effect at 250 ug/ml; type: functional
Enterococcus faecium [30] = assay: Antimicrobial activity against Enterococcus faecium ATCC 8042 by turbidimetric analysis; type: functional
Streptococcus mutans [31] = assay: Antimicrobial activity against Streptococcus mutans ATCC 25175 after 12 hrs by time kill analysis; type: functional, organism-based
Streptococcus mutans [32] = assay: Antimicrobial activity against Streptococcus mutans ATCC 25175 assessed as log reduction in bacterial growth at 250 ug/ml measured at 10 hrs by time kill analysis; type: functional
Streptococcus sanguinis [33] = assay: Antimicrobial activity against Streptococcus sanguis ATCC 10556 by turbidimetric analysis; type: functional
Neutrophil [34] = assay: Antiinflammatory activity against human neutrophils assessed as inhibition of LPS-stimulated TNFalpha production at 10 ug/ml after 3 hrs by FACS analysis; type: functional, cell-based
Fusobacterium nucleatum [35] = assay: Bactericidal activity against Fusobacterium nucleatum ATCC 10953 after 24 hrs by turbidimetric analysis; type: functional; conditions: ATCC 10953, 24 h
Neutrophil [36] = assay: Antiinflammatory activity against human neutrophils assessed as inhibition of LPS-stimulated TNFalpha production at 5 ug/ml after 3 hrs by FACS analysis; type: functional, cell-based
Streptococcus mutans [37] = conditions: ATCC 25175, 1000 ug/ml
Description: Antimicrobial activity against adherent cells of Streptococcus mutans ATCC 25175 assessed as inhibition of water-insoluble glucan synthesis at 1000 ug/ml in presence of sucrose

Streptococcus sanguinis [38] = assay: Bactericidal activity against Streptococcus sanguis ATCC 10556 after 24 hrs by turbidimetric analysis; type: functional; conditions: ATCC 10556, 24 h
Streptococcus mutans [39] = assay: Antimicrobial activity against Streptococcus mutans ATCC 25175 assessed as eradication of preformed biofilm after 24 hrs by crystal violet staining; type: functional, organism-based; conditions: ATCC 25175, 24 h
Actinomyces viscosus [40] = assay: Antimicrobial activity against Actinomyces viscosus ATCC 15987 assessed as increase in membrane permeability at 1000 ug/ml after 30 mins by propidium iodide staining-based flow cytometry; type: functional, organism-based

In the case of `COc1ccc(C2CNC(=O)C2)cc1OC1CCCC1` (configuration not stated), the inhibition (Neutrophil [1]) is reported as “Active”.
`C=CCc1ccc(O)c(O)c1` [HYDROXYCHAVICOL] showed an MIC (Actinomyces viscosus [2]) of 250 µg/mL (≈ 1660 µM), an MBC (Prevotella intermedia [3]) of 125 µg/mL (≈ 832 µM) and an MIC [4] of 250 µg/mL (≈ 1660 µM). It also gave an MIC (Prevotella intermedia [5]) of 125 µg/mL (≈ 832 µM), an IC50 (Actinomyces viscosus [6]) of 1000 µg/mL (≈ 6660 µM) and an MBC [7] of 500 µg/mL (≈ 3330 µM). The MIC (Enterococcus faecalis [8]) was 250 µg/mL (≈ 1660 µM), the Activity (Streptococcus mutans [9]) was “tde” and the Activity (Homo sapiens [10]) was “Non-toxic”. The PAE (Streptococcus mutans [11]) was 6 h, the MBC (Porphyromonas gingivalis [12]) was 62.5 µg/mL (≈ 416 µM) and the Activity (Homo sapiens [13]) was “Non-toxic”. It also gave an inhibition (Liver microsomes) of 15%, an MIC (Porphyromonas gingivalis [14]) of 62.5 µg/mL (≈ 416 µM) and a PAE (Streptococcus mutans [15]) of 3.5 h. The IC50 (Streptococcus mutans [16]) was 500 µg/mL (≈ 3330 µM), the Activity [17] was “Non-toxic” and the Activity (Streptococcus mutans [18]) was “Active”. For the same molecule, the MIC (Fusobacterium nucleatum [19]) was 125 µg/mL (≈ 832 µM), the IC50 (Actinomyces viscosus [20]) was 500 µg/mL (≈ 3330 µM) and the inhibition (Neutrophil [21]) was “Active”. It also gave an MIC (Streptococcus mutans [22]) of 250 µg/mL (≈ 1660 µM), an MBC (Enterococcus faecium [23]) of 500 µg/mL (≈ 3330 µM) and an MBC (Actinomyces viscosus [24]) of 500 µg/mL (≈ 3330 µM). The Activity (Streptococcus mutans [25]) was “Active”, the MBC (Streptococcus mutans [26]) was 500 µg/mL (≈ 3330 µM) and the PAE (Actinomyces viscosus [27]) was 7 h. The MBC (Enterococcus faecalis [28]) was 250 µg/mL (≈ 1660 µM), the PAE (Actinomyces viscosus [29]) was 4 h and the MIC (Enterococcus faecium [30]) was 250 µg/mL (≈ 1660 µM). For the same molecule, the Activity (Streptococcus mutans [31]) was “Dose-dependent effect”, the log reduction (Streptococcus mutans [32]) was 3 and the MIC (Streptococcus sanguinis [33]) was 125 µg/mL (≈ 832 µM). For the same molecule, the inhibition (Neutrophil [34]) was “Active”, the MBC (Fusobacterium nucleatum [35]) was 125 µg/mL (≈ 832 µM) and the inhibition (Neutrophil [36]) was “Active”. The inhibition (Streptococcus mutans [37]) was “Active”, the MBC (Streptococcus sanguinis [38]) was 125 µg/mL (≈ 832 µM) and the IC50 (Streptococcus mutans [39]) was 500 µg/mL (≈ 3330 µM). For the same molecule, the Activity (Actinomyces viscosus [40]) was “Active”.
With `Cc1ccc(C(C)C)c(O)c1` [THYMOL] the Activity [17] was “Non-toxic”.
